# Publication PMC9606102, “[^89Zr]Zr-PSMA-617 PET/CT in biochemical recurrence of prostate cancer: first clinical experience from a pilot study including biodistribution and dose estimates” (European Journal of Nuclear Medicine and Molecular Imaging, 2022)
# Values joined by “and” are separate entries in the source; they are usually repeats but may differ in a detail not shown here. Equal values may be shown once.
# Test: Radiation dosimetry of [^89Zr]Zr-PSMA-617 (QDOSE / IDAC 2.1)
# Assay type: in vivo, human (patients)
# Parameters: TIAC (time-integrated activity coefficient): unit not given here
# Protocol: Each patient underwent PET/CT imaging scans at 4 time points: 1 h, 24 h, 48 h, and 72 h post intravenous injection (p.i.) of 111 ± 11 MBq (mean ± standard deviation, range 97–129 MBq) [^89Zr]Zr-PSMA-617. All PET/CT imaging was performed on a Biograph mCT 40 scanner (Siemens Medical Solutions, Knoxville, TN, USA) comprising whole-body PET/CT scans extending from vertex to mid-femur in 3D mode. PET acquisition time duration was 4 min per bed position on the initial day of injection and extended up to 10 min on the last day. CT data were acquired in low-dose technique using an X-ray tube voltage of […] and a modulation of the tube current (CARE Dose4D, Siemens Erlangen; maximal tube current 30 mA) followed by reconstruction with a soft tissue reconstruction kernel (B31f) to a slice thickness of 5 mm (increment 2–4 mm). PET emission data was corrected for decay, randoms, and scatter. PET image reconstruction was performed applying an iterative 3-dimensional ordered-subset expectation maximization (OSEM) algorithm (3 iterations; 24 subsets) with gaussian filtering to a transaxial resolution of 5 mm at full width half maximum (FWHM). The matrix and the pixel size were 200 × 200 and 3.0 mm, respectively. Attenuation correction was performed using the low-dose CT data.
# Mean absorbed radiation doses were estimated using the QDOSE program package (ABX-CRO, Dresden, Germany) considering the following organs as source organs: kidneys, liver, spleen, salivary glands (parotid gland and submandibular gland), and lacrimal gland. As a first step, volumetric co-registration of the different time points was performed by taking the first CT scan as reference. PET images, which were coupled to the CT images of the respective imaging session, were transformed according to the CT transformation matrix. Boundary VOIs which solely enclosed the source organs without interfering with the activity concentration of neighboring structures were manually drawn in the PET image that allowed the best organ delineation and then copied onto all other time-point scans. Manual adjustment of the boundary VOI for each time point was done when necessary, using the respective CT. Volume and activity estimation were performed within the boundary applying a fuzzy locally adaptive Bayesian (FLAB) segmentation algorithm for automatic volume delineation. The next step comprised mono-exponential regression of the serial measured activities using weighted least squares method and estimation of both, the time integrated activities (TIA) and the time-integrated activity coefficients (TIAC) in the source regions. As an approximation, a linear increase from t = 0 to the first acquisition time point was assumed, and the integration method for the first time interval was based on the trapezoidal method. Between the first and the last time point, a trapezoidal integration was used, whereas the TIA from the last time-point to infinity was calculated analytically by applying the mono-exponential fitting curve. The respective TIACs (often termed residence time) of the source organs were calculated by normalizing the TIA to the amount of activity administered. The total body TIA was calculated approximately using the total FOV volume of interest and the injected activity. As a further approximation, constant activity between t = 0 and the first acquisition time point was assumed, and the integration method for the first-time interval was based on the trapezoidal method. Between the first time point and infinity, the TIA was calculated analytically by using the mono-exponential fitting curve. Estimations of absorbed organ dose and effective dose were performed by the IDAC 2.1 software which is implemented in QDOSE [25–27]. The IDAC reference man was applied for the kidneys, the spleen, the liver, the heart and the intestine, and the sphere model for the salivary and lacrimal glands. […]
smiles,measurement,setting,value
O=C([O-])CN1CCN(CC(=O)[O-])CCN(CC(=O)NCC2CCC(C(=O)NC(Cc3ccc4ccccc4c3)C(=O)NCCCCC(NC(=O)NC(CCC(=O)O)C(=O)O)C(=O)O)CC2)CCN(CC(=O)[O-])CC1.[89Zr+4] (centres unmarked) [[^89Zr]Zr-PSMA-617],"Overall effective dose, times higher than PET with [^68Ga]Ga-PSMA-617 or [^68Ga]Ga-PSMA-11","111 MBq vs diagnostic activity of 200 MBq of the 68Ga tracers (ref 29, 30)",2–3 times
same,Effective dose,"average of 7 patients, mean ± SD",0.0913 ± 0.0118 mSv/MBq
same,"Absorbed doses of parotid glands and kidneys, times higher than [^68Ga]Ga-PSMA-617 and [^68Ga]Ga-PSMA-11","in absolute numbers, comparators ref 29, 30",3–4 times
same,TIAC (time-integrated activity coefficient),"kidneys, mean ± SD",1.74 ± 0.44
same,l (rate constant),"kidneys, mean ± SD",0.022 ± 0.002 h⁻¹
same,"A (% injected A0), monoexponential curve-fitting parameter","kidneys, mean ± SD, n = 7 patients",3.75 ± 1.24 % injected A0
same,Absorbed dose,"kidneys, mean ± SD, IDAC 2.1",0.517 ± 0.125 mGy/MBq
same,"A (% injected A0), monoexponential curve-fitting parameter","lacrimal gland, mean ± SD",0.02 ± 0.01 % injected A0
same,l (rate constant),"lacrimal gland, mean ± SD",0.030 ± 0.006 h⁻¹
same,Absorbed dose,"lacrimal gland, mean ± SD, sphere model",0.156 ± 0.070 mGy/MBq
same,"A (% injected A0), monoexponential curve-fitting parameter","liver, mean ± SD",6.62 ± 1.39 % injected A0
same,TIAC (time-integrated activity coefficient),"liver, mean ± SD",1.54 ± 0.49
same,l (rate constant),"liver, mean ± SD",0.049 ± 0.014 h⁻¹
same,Absorbed dose,"liver, mean ± SD, IDAC 2.1",0.158 ± 0.051 mGy/MBq
same,"A (% injected A0), monoexponential curve-fitting parameter","parotid gland, mean ± SD",0.70 ± 0.20 % injected A0
same,TIAC (time-integrated activity coefficient),"parotid gland, mean ± SD",0.31 ± 0.10
same,l (rate constant),"parotid gland, mean ± SD",0.031 ± 0.005 h⁻¹
same,Absorbed dose,"parotid gland, mean ± SD, sphere model",0.601 ± 0.185 mGy/MBq
same,"A (% injected A0), monoexponential curve-fitting parameter","spleen, mean ± SD",1.25 ± 0.70 % injected A0
same,TIAC (time-integrated activity coefficient),"spleen, mean ± SD",0.21 ± 0.12
same,l (rate constant),"spleen, mean ± SD",0.079 ± 0.034 h⁻¹
same,Absorbed dose,"spleen, mean ± SD, IDAC 2.1",0.175 ± 0.068 mGy/MBq
same,"A (% injected A0), monoexponential curve-fitting parameter","submandibular gland, mean ± SD",0.27 ± 0.09 % injected A0
same,TIAC (time-integrated activity coefficient),"submandibular gland, mean ± SD",0.13 ± 0.04
same,l (rate constant),"submandibular gland, mean ± SD",0.029 ± 0.004 h⁻¹
same,Absorbed dose,"submandibular gland, mean ± SD, sphere model",0.468 ± 0.136 mGy/MBq and 0.468 ± 0.185 mGy/MBq
